In patent US20220221445A1, “USES OF PATIENT-DERIVED INTESTINAL ORGANOIDS FOR CELIAC DISEASE DIAGNOSIS SCREENING AND TREATMENT” (The Board of TrusteesoftheLelandStanfordJuniorUniversity, priority 2019, published 2022):

Tested on: active CeD organoids
Experiment: IL-15 expression and IL-15 gain-of-function in CeD organoids
Format: cell-based, human
Settings: gain-of-function treatment
Text: IL-15 loss-of-function is studied in gliadin-treated, active CeD organoids +/− IL-15 neutralization by soluble recombinant IL-15 receptor (soluble hIL15Rα, R&D #7194-IR) or anti-human IL-15 neutralizing antibody (R&D #MAB647). Endpoints include inhibition of the following gliadin-induced responses: (1) HLA-DQ2:gliadin tetramer-positive T cell abundance by FACS, (2) tetramer(+) CD4^+ T cell or tetramer(−) CD8^+ IEL activation by scRNA-seq and Nanostring digital transcript counting of FACS-sorted immune subsets and (3) inhibition of gliadin-induced epithelial apoptosis and proliferation. Gain-of-function recombinant IL-15 treatment (R&D #247-ILB) of CeD organoids enhances gliadin-induced (1) expansion of HLA-DQ2:gliadin tetramer^82-positive T cells by FACS, (2) activation of these tetramer(+) CD4^+ T cells or tetramer(−) CD8^+ IELs by scRNA-seq and FACS/Nanostring analysis of immune subsets and (3) induction of epithelial apoptosis and proliferation.

recombinant IL-15: recombinant IL-15 (R&D #247-ILB)
effect on gliadin-induced tetramer-positive T cell expansion, T cell activation, epithelial apoptosis and proliferation: enhances
